The assay has as its system KB. Put plainly: Cytotoxicity against human KB cells. The assay is classed as functional. To be noted: read-out: ED50 (the source's name).

In brackets after ≈: the same amount, converted by molar mass.

With `C[C@@H]1C[C@@H]2OC(=O)[C@]3(C)[C@H]2[C@@H](OC3(C)O)[C@]2(C)C(=O)C=C[C@@H]12` (some centres undefined) [TENULIN], the EC50 is 26 mg/L (≈ 84.9 µM). With `C=C1C(=O)O[C@H]2C[C@@H](C)[C@@H]3C=CC(=O)[C@@]3(C)[C@H](O)[C@H]12` [MEXICANIN I], the EC50 is 1.9 mg/L (≈ 7.24 µM). The figure for `C=C1C(=O)O[C@H]2C[C@@H](C)[C@@H]3C=CC(=O)[C@@]3(C)C[C@H]12` [AROMATICIN] is 2 mg/L (≈ 8.12 µM); for `COc1c(O)cc2oc(-c3ccc(O)cc3)cc(=O)c2c1O` [HISPIDULIN] it is 96 mg/L (≈ 320 µM).

(Values after ChEMBL document CHEMBL1158652, “Constituents of Helenium amarum. II. Isolation and Characterization of Heleniamarin and Other Constituents” (1979).)
